Reference: ChEMBL document CHEMBL1144668, “Mono- and dialkyl isoprenoid bisphosphonates as geranylgeranyl diphosphate synthase inhibitors” (Bioorg Med Chem, 2008)
Calls of active or inactive are those of the source. The calls are words filed in the database; no cut-off is given here.

System: K562
Assay: Inhibition of Ras farnesylation in human K562 cells after 24 hrs by Western blot
Assay type: functional, cell-based

Compound	Activity
CC(C)=CCCC(C)=CCC(CC=C(C)CCC=C(C)C)(P(=O)(O)O)P(=O)(O)O	inactive
CC(C)=CCC/C(C)=C\CC(C/C=C(\C)CCC=C(C)C)(P(=O)(O)O)P(=O)(O)O	inactive
